Source: paper PMC10685196 (Heliyon, 2023)
Read-outs that look alike come from different tables or passages of the source.

Legend:
Br2 β-glucosidase [1] = conditions: read-out: pNP-Glc; 0.1 M sodium phosphate, pH 6.5, 40 °C, 10 min; cited from earlier work
Br2 β-glucosidase [2] = test: glucose release, glucose oxidase/ABTS assay, Michaelis-Menten fit; assay type: biochemical, uncultured bacterium; conditions: 0.1 M sodium phosphate, pH 6.5, 40 °C, 10 min
Br2 β-glucosidase [3] = conditions: 0.1 M sodium phosphate, pH 6.5, 40 °C, 10 min
[4] = molecular target: Br2 β-glucosidase (glycoside hydrolase family 1), wild type (bovine rumen metagenome (microbe not identified)); test: SEC
Br2 β-glucosidase [5] = conditions: read-out: pNP-Glc; 0.1 M sodium phosphate, pH 6.5, 40 °C, 10 min
Br2 β-glucosidase [6] = test: p-nitrophenol release, absorbance at […] nm, Michaelis-Menten fit; assay type: biochemical, uncultured bacterium; conditions: read-out: pNP-Glc; 0.1 M sodium phosphate, pH 6.5, 40 °C, 10 min

Which Km (Br2 β-glucosidase [1]) does the source give for OC[C@H]1O[C@@H](O[C@H]2[C@H](O)[C@@H](O)C(O)O[C@@H]2CO)[C@H](O)[C@@H](O)[C@@H]1O (stereo partly shown) [Cellobiose] here?
The Km was 24.3 ± 9.8 mM.

For OC[C@H]1O[C@@H](O[C@@H]2[C@@H](O)[C@H](O[C@@H]3[C@@H](O)[C@H](O[C@H]4[C@H](O)[C@@H](CO)OC(O)[C@@H]4O)O[C@H](CO)[C@H]3O)O[C@H](CO)[C@H]2O)[C@H](O)[C@@H](O)[C@@H]1O (stereo partly shown) [Laminaritetraose], which Km (Br2 β-glucosidase [2]; read-out: Gentiobiose) is on record?
The Km was 2.56 ± 0.41 mM.

With OC[C@H]1O[C@@H](O[C@H]2[C@H](O)[C@@H](O)[C@H](O[C@H]3[C@H](O)[C@@H](O)[C@H](O[C@H]4[C@H](O)[C@@H](O)C(O)O[C@@H]4CO)O[C@@H]3CO)O[C@@H]2CO)[C@H](O)[C@@H](O)[C@@H]1O (stereo partly shown) [Cellotetraose] as the compound, how does the Km (Br2 β-glucosidase [2]; read-out: Gentiobiose) read?
The Km was 3.87 ± 0.16 mM.

What about the Km (Br2 β-glucosidase [3]; read-out: Gentiobiose) of the same compound?
Its Km is 1.83 ± 0.09 mM.

For OC[C@H]1O[C@@H](OC[C@H]2OC(O)[C@H](O)[C@@H](O)[C@@H]2O)[C@H](O)[C@@H](O)[C@@H]1O (stereo partly shown) [Gentiobiose], which Km (Br2 β-glucosidase [2]; read-out: Gentiobiose) is on record?
The Km was 35.8 ± 10.9 mM.

Which Km (Br2 β-glucosidase [2]; read-out: Sophorose) does the source give for OC[C@H]1O[C@@H](O[C@@H]2[C@@H](O)[C@H](O[C@H]3[C@H](O)[C@@H](CO)OC(O)[C@@H]3O)O[C@H](CO)[C@H]2O)[C@H](O)[C@@H](O)[C@@H]1O (stereo partly shown) [Laminaritriose] here?
Its Km is 0.9 ± 0.09 mM.

Which stoichiometry N [4] does the source give for “Br2 β-glucosidase (glycoside hydrolase family 1), wild type (enzyme)” here?
Its stoichiometry N is 4.

What does the source list for OC[C@H]1O[C@@H](O[C@H]2[C@H](O)[C@@H](CO)OC(O)[C@@H]2O)[C@H](O)[C@@H](O)[C@@H]1O (stereo partly shown) [Laminaribiose]?
Km (Br2 β-glucosidase [2]; read-out: pNP-Glc): 1.29 ± 0.08 mM; Km (Br2 β-glucosidase [5]): 11.7 ± 4.2 mM

Which Km (Br2 β-glucosidase [6]) does the source give for O=[N+]([O-])c1ccc(O[C@@H]2O[C@H](CO)[C@@H](O)[C@H](O)[C@H]2O)cc1 [pNP-Glc, p-nitrophenyl β-D-glucopyranoside] here?
The Km was 0.55 ± 0.04 mM.

For OC[C@H]1O[C@@H](O[C@H]2[C@H](O)[C@@H](O)[C@H](O[C@H]3[C@H](O)[C@@H](O)C(O)O[C@@H]3CO)O[C@@H]2CO)[C@H](O)[C@@H](O)[C@@H]1O (stereo partly shown) [Cellotriose], which Km (Br2 β-glucosidase [2]; read-out: Sophorose) is on record?
Its Km is 6.73 ± 0.32 mM.

And the Km (Br2 β-glucosidase [3]; read-out: Sophorose)?
Its Km is 3.57 ± 0.33 mM.

Which Km (Br2 β-glucosidase [2]; read-out: Sophorose) does the source give for OC[C@H]1O[C@@H](O[C@H]2C(O)O[C@H](CO)[C@@H](O)[C@@H]2O)[C@H](O)[C@@H](O)[C@@H]1O (stereo partly shown) [Sophorose] here?
The Km was 2.68 ± 0.16 mM.
